Reference: US20230235358A1, “HOST DEFENSE SUPPRESSING METHODS AND COMPOSITIONS FOR MODULATING A GENOME” (FLAGSHIP PIONEERING INNOVATIONS VI, LLC, priority 2020, published 2023)

Experiments:
[1] = test system: human skin cells; conditions: cited from earlier work
[2] = test system: primary human dermal fibroblasts; experiment: Cytotoxicity (PrestoBlue) three days post transfection, Example 3; type: cell-based; conditions: addition of BAY11
Description: (§1) In this example, primary human dermal fibroblasts (ATCC PCS-201-012) are cultured according to ATCC instructions. Cells are nucleofected (Lonza Nucleofector®) with the following samples: • 1. mRNA encoding Gene Writer polypeptide targeting AAVS1+Gene Writer RNA template carrying a GFP reporter gene • 2. Condition (1) with genetically inactivated Gene Writer polypeptide • 3. Condition (1)+BAY 11-7082 • 4. Condition (1)+BAY 11-7082+IFN-beta
(§2) Gene Writing efficiency is measured from cultured cells 3 days after transfection by flow cytometry to assay the percentage of cells expressing GFP or by digital droplet PCR analysis with primers and probe on the junction between the template sequence and the targeted locus and on reference sequences as previously described (see PCT/US2019/048607). […] In some embodiments, the addition of BAY11 will increase one or both of the expression of the Gene Writer polypeptide, and the stability of the RNA template. In some embodiments, the addition of […] will also reduce cytotoxicity, e.g., cytotoxicity that is due to intracellular immune pathways.

[3] = test system: primary human dermal fibroblasts; experiment: Gene Writing efficiency (GFP flow cytometry / ddPCR) with BAY 11-7082; type: cell-based; conditions: addition of BAY11
Description: as §1, §2

[4] = test system: mouse liver; experiment: LNP-mediated delivery of firefly luciferase mRNA to the mouse liver (luciferase activity of liver homogenate); type: in vivo; conditions: C57BL/6 mice, i.v. 1 mg/kg, 6, 24, 48 hours, FIG. 2
Description: To measure the effectiveness of LNP-mediated delivery of firefly luciferase containing particles to the liver, LNPs were formulated and characterized as described in Example 9 and tested in vitro prior (Example 10) to administration to mice. C57BL/6 male mice (Charles River Labs) at approximately 8 weeks of age were dosed with LNPs via intravenous (i.v.) route at 1 mg/kg. Vehicle control animals were dosed i.v. with 300 μL phosphate buffered saline. Mice were injected via intraperitoneal route with dexamethasone at 5 mg/kg 30 minutes prior to injection of LNPs. Tissues were collected at necropsy at or 6, 24, 48 hours after LNP administration with a group size of 5 mice per time point. Liver and other tissue samples were collected, snap-frozen in liquid nitrogen, and stored at −80° C. until analysis.
Frozen liver samples were pulverized on dry ice and transferred to homogenization tubes containing lysing matrix D beads (MP Biomedical). Ice-cold 1×luciferase cell culture lysis reagent (CCLR) (Promega) was added to each tube and the samples were homogenized in a Fast Prep-24 5G Homogenizer (MP Biomedical) at 6 m/s for 40 seconds. The samples were transferred to a clean microcentrifuge tube and clarified by centrifugation. Prior to luciferase activity assay, the protein concentration of liver homogenates was determined for each sample using the Pierce™ BCA Protein Assay Kit (ThermoFisher Scientific) according to the manufacturer's instructions. Luciferase activity was measured with 200 μg (total protein) of liver homogenate using the luciferase assay reagent (Promega) according to manufacturer's instructions using an i3X SpectraMax plate reader (Molecular Devices). […] Reporter activity by the various formulations followed the ranking LIPIDV005>LIPIDV004>LIPIDV003. RNA expression was transient and enzyme levels returned near vehicle background by 48 hours. Post-administration. This assay validated the use of these ionizable lipids and their respective formulations for RNA systems for delivery to the liver.

| Compound | Expression of OCT4 from synthetic mRNA [1] | Cytotoxicity due to intracellular immune pathways [2] | Expression of the Gene Writer polypeptide and/or stability of the RNA template [3] | Reporter (luciferase) activity in liver, ranking of formulations [4] |
| --- | --- | --- | --- | --- |
| Cc1ccc(S(=O)(=O)/C=C/C#N)cc1 [BAY11, BAY 11-7082] | improve | reduce | increase | – |
| CCCCC/C=C\C/C=C\CCCCCCCC(=O)OCC(COC(=O)CCC(OCCCCCCCC)OCCCCCCCC)COC(=O)OCCCN(CC)CC (stereo not drawn) [LIPIDV003] | – | – | – | LIPIDV005>LIPIDV004>LIPIDV003 |
| CCCCCCCCCOC(=O)CCCCCCCN(CCO)CCCCCCCC(=O)OC(CCCCCCCC)CCCCCCCC [LIPIDV004] | – | – | – | LIPIDV005>LIPIDV004>LIPIDV003 |
| CCCCCCCC(=O)N(CCCN(C)C)C(CCCCCCCCC(=O)OC(CCCCCC)CCCCCC)CCCCCCCCC(=O)OC(CCCCCC)CCCCCC [LIPIDV005] | – | – | – | LIPIDV005>LIPIDV004>LIPIDV003 |
